The results in this text go back to patent US20240368173A1, “TRICYCLIC GPR65 MODULATORS” (PATHIOS THERAPEUTICS LIMITED, priority 2021, published 2024).

As a reminder, the IC50 is the concentration at which inhibition is half-maximal.

human recombinant GPR65, sequence (Q8IYL9 whole entry): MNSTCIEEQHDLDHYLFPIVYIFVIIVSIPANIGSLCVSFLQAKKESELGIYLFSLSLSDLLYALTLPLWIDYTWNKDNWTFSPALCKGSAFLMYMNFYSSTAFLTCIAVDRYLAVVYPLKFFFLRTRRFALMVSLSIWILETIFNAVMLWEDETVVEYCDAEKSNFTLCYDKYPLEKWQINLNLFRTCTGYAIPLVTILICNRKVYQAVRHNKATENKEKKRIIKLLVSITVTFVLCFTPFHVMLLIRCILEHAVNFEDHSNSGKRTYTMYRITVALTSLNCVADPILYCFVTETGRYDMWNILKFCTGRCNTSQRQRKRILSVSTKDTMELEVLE

The first assay addresses human recombinant GPR65 (Homo sapiens, UniProt Q8IYL9). As to the kind of experiment: Human GPR65 cAMP HTRF antagonist assay. The class given is cell-based.
Settings: not given
A digest of the protocol:
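1321N1 astrocytoma cells stably expressing hrGPR65, with IBMX and EDTA, were preincubated with compound 30 min at room temperature, then acid-activated at assay pH 7.2 (control pH 7.9) for 30 min. cAMP read by HTRF (665/620 nm ratio); IC50 from 4-parameter fit normalised to high/low controls.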
(In TR-FRET formats the signal depends on donor and acceptor labels being close together.)
For the molecule `O=C(Nc1cc(Cl)c(-c2cnc(OCC(F)(F)F)c(F)c2)cc1F)N1[C@H]2CC[C@@H]1c1n[nH]c(=O)cc1C2` [Compound 328, (6S,9R)-N-(5-Chloro-2-fluoro-4-(5-fluoro-6-(2,2,2-trifluoroethoxy)pyridin-3-yl)phenyl)-3-oxo-3,5,6,7,8,9-hexahydro-2H-6,9-epiminocyclohepta[c]pyridazine-10-carboxamide], the half-inhibitory concentration (IC50) was less than 0.5 µM.

Consider `O=C(Nc1cc(Br)c(Cl)cc1F)N1[C@@H]2CC[C@H]1c1n[nH]c(=O)cc1C2` [Compound 38, (6R,9S)-N-(5-Bromo-4-chloro-2-fluorophenyl)-3-oxo-3,5,6,7,8,9-hexahydro-2H-6,9-epiminocyclohepta[c]pyridazine-10-carboxamide], for which the IC50 is 0.5 to 5 µM.

Take `O=C(Nc1cc(F)c(-c2ccc(F)nc2)cc1F)N1[C@H]2CC[C@@H]1c1n[nH]c(=O)cc1C2` [Compound 244, (6S,9R)-N-(2,5-Difluoro-4-(6-fluoropyridin-3-yl)phenyl)-3-oxo-3,5,6,7,8,9-hexahydro-2H-6,9-epiminocyclohepta[c]pyridazine-10-carboxamide]: the IC50 is less than 0.5 µM.

As for `O=C(Nc1cc(C(F)(F)F)on1)N1[C@H]2CC[C@@H]1c1n[nH]c(=O)cc1C2` [Compound 110, (6S,9R)-3-Oxo-N-(5-(trifluoromethyl)isoxazol-3-yl)-3,5,6,7,8,9-hexahydro-2H-6,9-epiminocyclohepta[c]pyridazine-10-carboxamide], the IC50 was less than 0.5 µM.

As to `CC(C)Oc1ccc(-c2cc(F)c(NC(=O)N3[C@H]4CC[C@@H]3c3ccnc(F)c3C4)cc2Cl)cn1` [Compound 274, (5R,8S)-N-(5-Chloro-2-fluoro-4-(6-isopropoxypyridin-3-yl)phenyl)-1-fluoro-6,7,8,9-tetrahydro-5H-5,8-epiminocyclohepta[c]pyridine-10-carboxamide], the IC50 is less than 0.5 µM.

In the case of `O=C(Nc1cc(Cl)c(-c2cncc(F)c2)cc1F)N1[C@H]2CC[C@@H]1c1ccnc(F)c1C2` [Compound 200, (5R,8S)-N-(5-Chloro-2-fluoro-4-(5-fluoropyridin-3-yl)phenyl)-1-fluoro-6,7,8,9-tetrahydro-5H-5,8-epiminocyclohepta[c]pyridine-10-carboxamide], the IC50 was less than 0.5 µM.

`O=C(Nc1cc(Cl)c(Cl)cc1F)N1C2CCC1c1n[nH]c(=O)cc1C2` (racemic) [Compound 2, (±)-N-(4,5-Dichloro-2-fluorophenyl)-3-oxo-3,5,6,7,8,9-hexahydro-2H-6,9-epiminocyclohepta[c]pyridazine-10-carboxamide]: the IC50 is less than 0.5 µM.

On to `Cn1ncc2cc(-c3cc(F)c(NC(=O)N4[C@H]5CC[C@@H]4c4n[nH]c(=O)cc4C5)cc3Cl)ccc21` [Compound 164, (6S,9R)-N-(5-Chloro-2-fluoro-4-(1-methyl-1H-indazol-5-yl)phenyl)-3-oxo-3,5,6,7,8,9-hexahydro-2H-6,9-epiminocyclohepta[c]pyridazine-10-carboxamide], for which the IC50 was less than 0.5 µM.

With `Cc1nn(C)c(C)c1-c1cc(F)c(NC(=O)N2[C@H]3CC[C@@H]2c2n[nH]c(=O)cc2C3)cc1Cl` [Compound 150, (6S,9R)-N-(5-Chloro-2-fluoro-4-(1,3,5-trimethyl-1H-pyrazol-4-yl)phenyl)-3-oxo-3,5,6,7,8,9-hexahydro-2H-6,9-epiminocyclohepta[c]pyridazine-10-carboxamide], the IC50 lay in the range of 0.5 to 5 µM.

Take `C[C@@]12CC[C@@H](Cc3c1ccnc3F)N2C(=O)Nc1cc(Cl)c(Cl)cc1F` [Compound 103, (5R,8S)-N-(4,5-Dichloro-2-fluorophenyl)-1-fluoro-5-methyl-6,7,8,9-tetrahydro-5H-5,8-epiminocyclohepta[c]pyridine-10-carboxamide]: the IC50 was less than 0.5 µM.

Take `O=C(Nc1cc(I)c(Cl)cc1F)N1[C@H]2CC[C@@H]1c1c[nH]c(=O)cc1C2` [Compound 80, (6S,9R)-N-(4-Chloro-2-fluoro-5-iodophenyl)-3-oxo-3,5,6,7,8,9-hexahydro-2H-6,9-epiminocyclohepta[c]pyridine-10-carboxamide]: the IC50 fell in the range of 0.5 to 5 µM.

As for `O=C(Nc1cc(Cl)c(OCc2ccccc2)cc1F)N1[C@H]2CC[C@@H]1c1n[nH]c(=O)cc1C2` [Compound 237, (6S,9R)-N-(4-(Benzyloxy)-5-chloro-2-fluorophenyl)-3-oxo-3,5,6,7,8,9-hexahydro-2H-6,9-epiminocyclohepta[c]pyridazine-10-carboxamide], the half-inhibitory concentration (IC50) was less than 0.5 µM.

As for `O=C(Nc1cc(Cl)c(-c2ccc(OCC3CC3)nc2)cc1F)N1[C@H]2CC[C@@H]1c1c[nH]c(=O)cc1C2` [Compound 334, (6S,9R)-N-(5-Chloro-4-(6-(cyclopropylmethoxy)pyridin-3-yl)-2-fluorophenyl)-3-oxo-3,5,6,7,8,9-hexahydro-2H-6,9-epiminocyclohepta[c]pyridine-10-carboxamide], the IC50 is less than 0.5 µM.

With `O=C(Nc1cc(Cl)c(-c2ccc(C(F)(F)F)nc2)cc1F)N1[C@H]2CC[C@@H]1c1n[nH]c(=O)cc1C2` [Compound 313, (6S,9R)-N-(5-Chloro-2-fluoro-4-(6-(trifluoromethyl)pyridin-3-yl)phenyl)-3-oxo-3,5,6,7,8,9-hexahydro-2H-6,9-epiminocyclohepta[c]pyridazine-10-carboxamide], the IC50 was less than 0.5 µM.

On to `O=C(Nc1cc(Cl)c(-c2ccc(C(F)(F)F)nc2)cc1F)N1[C@H]2CC[C@@H]1c1c[nH]c(=O)cc1C2` [Compound 312, (6S,9R)-N-(5-Chloro-2-fluoro-4-(6-(trifluoromethyl)pyridin-3-yl)phenyl)-3-oxo-3,5,6,7,8,9-hexahydro-2H-6,9-epiminocyclohepta[c]pyridine-10-carboxamide], for which the IC50 was less than 0.5 µM.

With `O=C(Nc1cc(Cl)c(-c2ccc3nonc3c2)cc1F)N1[C@H]2CC[C@@H]1C(F)(F)c1c2ccnc1F` [Compound 329, (5S,8R)-N-(4-(Benzo[c][1,2,5]-oxadiazol-5-yl)-5-chloro-2-fluorophenyl)-1,9,9-trifluoro-6,7,8,9-tetrahydro-5H-5,8-epiminocyclohepta[c]pyridine-10-carboxamide], the 50% inhibitory concentration (IC50) was in the range of 0.5 to 5 µM.

Regarding `O=C(Nc1cc(Cl)c(-c2cnc3nsnc3c2)cc1F)N1[C@H]2CC[C@@H]1c1n[nH]c(=O)cc1C2` [Compound 277, (6S,9R)-N-(4-([1,2,5]Thiadiazolo[3,4-b]pyridin-6-yl)-5-chloro-2-fluorophenyl)-3-oxo-3,5,6,7,8,9-hexahydro-2H-6,9-epiminocyclohepta[c]pyridazine-10-carboxamide], the half-inhibitory concentration (IC50) was less than 0.5 µM.

For the molecule `O=C(Nc1ccc(C(F)(F)F)c(Br)c1)N1C2CCC1c1n[nH]c(=O)cc1C2` (racemic) [Compound 3, (±)-N-(3-Bromo-4-(trifluoromethyl)phenyl)-3-oxo-3,5,6,7,8,9-hexahydro-2H-6,9-epiminocyclohepta[c]pyridazine-10-carboxamide], the concentration for half-maximal inhibition (IC50) was less than 0.5 µM.

The same assay, now with this note: 1321N1-hrGPR65 cells, cAMP HTRF, assay pH 7.2; read-out: hGPR65 IC50 (Activity of selected compounds according to the invention).
As for `O=C(Nc1cc(Cl)c(-c2cncnc2)cc1F)N1[C@H]2CC[C@@H]1c1n[nH]c(=O)cc1C2` [Compound 137, (6S,9R)-N-(5-Chloro-2-fluoro-4-(pyrimidin-5-yl)phenyl)-3-oxo-3,5,6,7,8,9-hexahydro-2H-6,9-epiminocyclohepta[c]pyridazine-10-carboxamide], the half-maximal inhibitory concentration (IC50) was in the range of 0.5 to 5 µM.

On to `CNCCCOc1cnc(F)c2c1[C@H]1CC[C@@H](C2)N1C(=O)Nc1cc(Cl)c(C(F)(F)F)cc1F` [Compound 161, (5R,8S)—N-(5-Chloro-2-fluoro-4-(trifluoromethyl)phenyl)-1-fluoro-4-(3-(methylamino)propoxy)-6,7,8,9-tetrahydro-5H-5,8-epiminocyclohepta[c]pyridine-10-carboxamide], for which the 50% inhibitory concentration (IC50) lay in the range of 0.5 to 5 µM.

As for `CN(C(=O)N1C2CCC1c1ccc(=O)n(C)c1C2)c1cc(Cl)c(Cl)cc1F` (racemic) [Compound 288, (±)—N-(4,5-Dichloro-2-fluorophenyl)-N,1-dimethyl-2-oxo-2,5,6,7,8,9-hexahydro-1H-5,8-epiminocyclohepta[b]pyridine-10-carboxamide], the 50% inhibitory concentration (IC50) is more than 5 µM.

Turning to `O=C(Nc1ccc(OC2COC2)c(Cl)c1)N1[C@H]2CC[C@@H]1c1ccnc(F)c1C2` [Compound 71, (5R,8S)-N-(3-Chloro-4-(oxetan-3-yloxy)phenyl)-1-fluoro-6,7,8,9-tetrahydro-5H-5,8-epiminocyclohepta[c]pyridine-10-carboxamide], the IC50 lay in the range of 0.5 to 5 µM.

As for `O=C1COc2ccc(-c3cc(F)c(NC(=O)N4[C@H]5CC[C@@H]4c4n[nH]c(=O)cc4C5)cc3Cl)cc2N1` [Compound 146, (6S,9R)-N-(5-Chloro-2-fluoro-4-(3-oxo-3,4-dihydro-2H-benzo[b][1,4]oxazin-6-yl)phenyl)-3-oxo-3,5,6,7,8,9-hexahydro-2H-6,9-epiminocyclohepta[c]pyridazine-10-carboxamide], the half-maximal inhibitory concentration (IC50) lay in the range of 0.5 to 5 µM.

For the molecule `CNCCOc1ccc(-c2cc(F)c(NC(=O)N3[C@H]4CC[C@@H]3c3ccnc(F)c3C4)cc2Cl)cn1` [Compound 300, (5R,8S)—N-(5-Chloro-2-fluoro-4-(6-(2-(methylamino)ethoxy)pyridin-3-yl)phenyl)-1-fluoro-6,7,8,9-tetrahydro-5H-5,8-epiminocyclohepta[c]pyridine-10-carboxamide], the 50% inhibitory concentration (IC50) lay within 0.5 to 5 µM.

On to `CC(C)Oc1ccc(NC(=O)N2C3CCC2c2n[nH]c(=O)cc2C3)cc1Cl` (racemic) [Compound 13, (±)-N-(3-Chloro-4-isopropoxyphenyl)-3-oxo-3,5,6,7,8,9-hexahydro-2H-6,9-epiminocyclohepta[c]pyridazine-10-carboxamide], for which the half-inhibitory concentration (IC50) lay within 0.5 to 5 µM.

As to `O=C(Nc1ccc(Br)c(Cl)c1)N1[C@@H]2CC[C@H]1c1n[nH]c(=O)cc1C2` [Compound 40, (6R,9S)-N-(4-Bromo-3-chlorophenyl)-3-oxo-3,5,6,7,8,9-hexahydro-2H-6,9-epiminocyclohepta[c]pyridazine-10-carboxamide], the half-maximal inhibitory concentration (IC50) is more than 5 µM.
